# Results from US5637619A, “Antitumor 2-aminocarbonyl-1, 2-bis(methylsulfonyl)-1-(substituted)hydrazines” (Yale University, priority 1995, dated 1997).
# “Also recorded” adds a separate entry of the source.
# Legend:
# L1210 leukemia = L1210 leukemia survival time in mice (ip implanted); format: in vivo, mice (CD2F1); conditions: for %T/C (average survival time treated/control × 100): cures not included
# Experimental: Leukemia L1210 cells were obtained from the Frederick Cancer Research Facility, Division of Cancer Treatment Tumor Repository of the National Cancer Institute, and were maintained by serial passage in tissue culture. Every 8 weeks, tumor cells were injected intraperitoneally into five donor CD2 F1 mice 8- to 10- weeks of age and were allowed to grow for 7 days. The peritoneal fluid was withdrawn and the suspension was centrifuged for 5 min at 1600 g. The supernatant was decanted and 10^5 cells/mL were seeded into 10 mL of RPMI 1640 medium supplemented with 10% fetal bovine serum and 1% L-glutamine, and once again maintained in culture. To assay for antineoplastic activity, 0.1 mL of the cell suspension containing 10^5 L1210 leukemia cells was injected ip into each recipient mouse. Test compounds were administered over a wide range of dosage levels, beginning 24 h after tumor implantation, and continued once daily for 6 consecutive days. All drugs were administered ip as a solution in 100% dimethylsulfoxide (DMSO), in a volume not exceeding 0.025 mL. […] Mice were weighed during the course of the experiments, and the percentage change in body weight from onset to termination of therapy was used as an indication of drug toxicity. Determination of the sensitivity of neoplasms to these agents was based upon the prolongation of survival time afforded by the drug treatments.
# ^a Administered ip once daily for six consecutive days, beginning 24 hours after tumor implantation, with 5-10 mice being used per group. ^b Average percent change in body weight from onset to termination of therapy. ^c % T/C=average survival time of treated/control mice×100; cures (>60-day survivors) are listed separately and are not included in this calculation.
# M109 lung carcinoma = experiment: M109 lung carcinoma, sc implanted; format: in vivo, BALB/c mice
# Experimental: The M5076 reticulum cell sarcoma was passaged biweekly by sc transfer of tumor fragments into C57BL/6 mice, and the M109 lung carcinoma was similarly passaged in BALB/c mice. The LX-1 human lung carcinoma was passaged sc every two to three weeks in BALB/c-background athymic (nu/nu) mice. For use in these systems, compound III was dissolved in: (a) 100% DMSO and administered by iv injection in a fixed volume of 10 microliters; or (b) DMSO diluted with saline to a final concentration of 10% DMSO and administered iv in a volume of 0.01 milliliter/g of body weight. […] Mitomycin C and cyclophosphamide were dissolved and administered in saline. BCNU and MeCCNU were dissolved in ethanol and diluted 1:9 (v/v) with water prior to administration.
# Five mice per group were employed in experiments with the B16F10 melanoma, and 8 mice per group with the M5076 sarcoma, the M109 carcinoma and the LX-1 carcinoma. A minimum of two dose levels per compound were included in each evaluation and drug therapy was initiated 24 h after tumor implantation for the M5076 sarcoma and M109 carcinoma. In the LX-1 experiment, tumor bearing mice were selected and sorted into treatment and control groups on day 6 post-tumor implant such that all tumor weights ranged from 50-100 mg and median tumor weights per group were reasonably similar. Therapeutic results are presented in terms of: (a) increases in lifespan reflected by the relative median survival time (MST) of treated versus control groups (i.e., %T/C values), and by long-term survivors, and (b) primary tumor growth inhibition (i.e., T-C values) determined by calculating the relative median times for treated (T) and control untreated (C) mice to grow tumors of a 0.5 g size for the LX-1 carcinoma or a 1 g size for the murine neoplasms. Tumor weights were interchangeable with tumor size on the basis of 1 mm^3 =1 mg. […] The activity criterion for tumor inhibition was a delay in tumor growth consistent with one log10 cell kill (LCK). The absolute T-C value needed to attain this level of efficacy varied from experiment to experiment and depended upon the tumor volume doubling time of the control mice in each study. Treated mice dying prior to day 10 in the ip M109 experiment, or dying before their tumors achieved 0.5 g for the LX-1 carcinoma or 1 g in size for all other sc tumor models, were considered to have died from drug toxicity. Groups of mice with more than one death due to drug toxicity were not used in the evaluation of antitumor efficacy. Statistical evaluations of data were performed using Gehan's generalized Wilcoxan test (Gehan, Biometrika, 1965, 52, 203-233).
# Compound III was also evaluated against the M109 lung carcinoma implanted subcutaneously (sc). In the initial test using this model, a dose of 50 mg/kg per injection of this compound was administered intravenously (iv) in 10% DMSO in saline every fourth day for a total of three injections. […] Mitomycin C, used as a reference drug, produced a maximum %T/C of 103 and a delay in tumor growth of 10 days (data not shown). A subsequent evaluation of compound III was performed using four different doses on a slightly different schedule, i.e., 24, 32, 48 and 64 mg/kg administered every third day for four total injections, and two vehicles, 10% DMSO in saline and 100% DMSO. […] Cyclophosphamide and mitomycin C were included as reference drugs in the last experiment. The former compound produced a maximum %T/C of 143 and a delay in tumor growth of 8.8 days, while mitomycin C produced a maximum %T/C of 134 and a T-C value of 9.3 days (data not shown). As reported earlier, compound X achieved a maximum %T/C of 136 and a maximum T-C value of 14.5 days against this tumor (Shyam, et al., J. Med. Chem., 1993, 36, 3496).
# [1] = experiment a, 50 mg/kg/injection, q4d × 3, iv, 10% DMSO in saline
# [2] = experiment b, 64 mg/kg/injection, q3d × 4, iv, 100% DMSO
smiles,measurement,setting,value
"CS(=O)(=O)N(CCCl)N(C(=O)NCCCl)S(C)(=O)=O [Compound III, 1,2-bis(methylsulfonyl)-1-(2-chloroethyl)-2-(2-chloroethyl)aminocarbonylhydrazine]",% 60 Day Survivors (cures),L1210 leukemia; 10 mg/kg ip once daily × 6,100%
same,% 60 Day Survivors (cures),L1210 leukemia; 15 mg/kg ip once daily × 6,80%
same,%T/C (average survival time treated/control × 100),L1210 leukemia; 15 mg/kg ip once daily × 6,216%
same,% 60 Day Survivors (cures),L1210 leukemia; 20 mg/kg ip once daily × 6,80%
same,%T/C (average survival time treated/control × 100),L1210 leukemia; 20 mg/kg ip once daily × 6,239%
same,antileukemic activity / therapeutic potential (in words),"L1210 leukemia; qualitative, L1210 leukemia in mice",One of the most active and potent compounds in the series; also recorded: much better therapeutic potential than the amino acid ester derivatives
same,lethality (in words),"M109 lung carcinoma; 48 mg/kg per injection, q3d × 4, iv, 10% DMSO in saline",excessively lethal
same,"antitumor effect versus 10% DMSO formulation, statistics (in words)","M109 lung carcinoma; 64 mg/kg in 100% DMSO vs best T-C in 10% DMSO in saline, p<0.01",statistically superior (p<0.01)
same,treatment-associated lethalities (in words),"M109 lung carcinoma; 64 mg/kg per injection, q3d × 4, iv, 100% DMSO",without causing any treatment-associated lethalities
same,%T/C (median survival time),M109 lung carcinoma; [1],115%
same,"T-C, delay in tumor growth",M109 lung carcinoma; [1],8.3 days
same,activity assessment of %T/C (in words),"M109 lung carcinoma; experiment a, 50 mg/kg/injection, q4d × 3, iv, criterion T/C ≥125%",not considered to be an active result
same,"%T/C (median survival time), maximum","M109 lung carcinoma; experiment b, 24 mg/kg/injection, q3d × 4, iv, 10% DMSO in saline",143%
same,"T-C, maximum delay in tumor growth","M109 lung carcinoma; experiment b, 32 mg/kg/injection, q3d × 4, iv, 10% DMSO in saline",9.3 days
same,"%T/C (median survival time), maximum",M109 lung carcinoma; [2],145%
same,"T-C, delay in tumor growth",M109 lung carcinoma; [2],17.8 days
